Measured values published in ChEMBL document CHEMBL1130196, “Selective, orally active 5-HT1D receptor agonists as potential antimigraine agents” (J Med Chem, 1997).

Key:
[1] = biological target: T1, 5-hydroxytryptamine receptor 1D (Homo sapiens, UniProt P28221); test: Displacement of [3H]5-HT from human 5-hydroxytryptamine 1D receptor expressed in CHO cells; assay type: cell-based
[2] = biological target: T2, 5-hydroxytryptamine receptor 1B (Homo sapiens, UniProt P28222); test: Displacement of [3H]5-HT from human 5-hydroxytryptamine 1B receptor expressed in CHO cells; assay type: cell-based
[3] = biological target: T1, 5-hydroxytryptamine receptor 1D; test: Maximum stimulation of [35S]GTP-gamma-S, binding to 5-hydroxytryptamine 1D receptor relative to 5-HT; assay type: functional
[4] = biological target: T1, 5-hydroxytryptamine receptor 1D; test: Stimulation of [35S]GTP-gamma-S, binding in CHO cells expressing 5-hydroxytryptamine 1D receptor; assay type: functional, cell-based
[5] = biological target: T3, 5-hydroxytryptamine receptor 2C (Homo sapiens, UniProt P28335); test: Compound was evaluated for the affinity at 5-hydroxytryptamine 2C receptor
T3 sequence (P28335 whole entry): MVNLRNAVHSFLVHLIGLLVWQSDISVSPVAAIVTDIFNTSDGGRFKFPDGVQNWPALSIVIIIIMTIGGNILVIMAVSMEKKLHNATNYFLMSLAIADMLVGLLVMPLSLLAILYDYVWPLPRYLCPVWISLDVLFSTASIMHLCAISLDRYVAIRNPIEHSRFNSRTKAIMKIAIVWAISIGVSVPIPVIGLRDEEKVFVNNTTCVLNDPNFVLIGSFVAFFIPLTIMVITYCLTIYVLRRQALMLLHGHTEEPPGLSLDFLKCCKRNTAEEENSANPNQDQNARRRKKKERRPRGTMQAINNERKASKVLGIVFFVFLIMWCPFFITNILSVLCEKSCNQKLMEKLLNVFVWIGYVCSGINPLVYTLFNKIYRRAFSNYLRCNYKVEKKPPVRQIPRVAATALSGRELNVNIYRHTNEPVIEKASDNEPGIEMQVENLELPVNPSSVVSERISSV

[6] = biological target: 5-hydroxytryptamine receptor 2A (Homo sapiens, UniProt P28223); test: Compound was evaluated for the affinity at 5-hydroxytryptamine 2A receptor
[7] = biological target: T4, 5-hydroxytryptamine receptor 1F (Homo sapiens, UniProt P30939); test: Compound was evaluated for the affinity at 5-hydroxytryptamine 1F receptor
T4 sequence (P30939 whole entry): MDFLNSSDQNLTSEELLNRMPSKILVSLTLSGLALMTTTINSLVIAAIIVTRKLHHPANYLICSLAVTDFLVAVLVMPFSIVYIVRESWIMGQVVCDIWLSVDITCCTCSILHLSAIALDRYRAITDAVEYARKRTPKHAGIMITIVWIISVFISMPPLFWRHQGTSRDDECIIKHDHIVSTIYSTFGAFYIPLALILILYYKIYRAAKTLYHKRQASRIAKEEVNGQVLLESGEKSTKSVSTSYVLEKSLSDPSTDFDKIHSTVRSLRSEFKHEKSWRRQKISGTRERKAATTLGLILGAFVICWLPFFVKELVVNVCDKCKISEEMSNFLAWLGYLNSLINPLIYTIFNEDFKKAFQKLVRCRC

[8] = biological target: T1, 5-hydroxytryptamine receptor 1D; test: Compound was evaluated for the stimulation of [35S]GTP-gamma-S, binding in CHO cells expressing the 5-hydroxytryptamine 1D receptor.; assay type: functional, cell-based
[9] = biological target: T5, 5-hydroxytryptamine receptor 3A (Homo sapiens, UniProt P46098); test: Compound was evaluated for the affinity at 5-hydroxytryptamine 3 receptor
T5 sequence (P46098 whole entry): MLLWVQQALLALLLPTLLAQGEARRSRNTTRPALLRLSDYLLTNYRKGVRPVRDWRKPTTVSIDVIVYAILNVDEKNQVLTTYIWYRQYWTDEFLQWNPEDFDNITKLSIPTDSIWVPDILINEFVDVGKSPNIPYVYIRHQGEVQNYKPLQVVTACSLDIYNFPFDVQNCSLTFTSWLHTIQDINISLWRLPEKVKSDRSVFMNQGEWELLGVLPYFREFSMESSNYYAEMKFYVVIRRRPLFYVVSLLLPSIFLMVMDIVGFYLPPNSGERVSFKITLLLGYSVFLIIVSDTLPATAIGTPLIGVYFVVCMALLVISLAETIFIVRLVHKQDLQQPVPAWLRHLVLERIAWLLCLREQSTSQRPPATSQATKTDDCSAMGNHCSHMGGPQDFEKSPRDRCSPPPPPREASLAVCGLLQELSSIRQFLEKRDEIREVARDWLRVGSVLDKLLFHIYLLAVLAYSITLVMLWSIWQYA

[10] = biological target: 5-hydroxytryptamine receptor 1E (Homo sapiens, UniProt P28566); test: Compound was evaluated for the affinity at 5-hydroxytryptamine 1E receptor
[11] = biological target: T1, 5-hydroxytryptamine receptor 1D; test: Compound was evaluated for the affinity at 5-hydroxytryptamine 1D receptor
[12] = biological target: T2, 5-hydroxytryptamine receptor 1B; test: Compound was evaluated for the affinity at 5-hydroxytryptamine 1B receptor
[13] = biological target: T6, 5-hydroxytryptamine receptor 1A (Mus musculus, UniProt Q64264); test: Compound was evaluated for the affinity at 5-hydroxytryptamine 1A receptor
T6 sequence (Q64264 whole entry): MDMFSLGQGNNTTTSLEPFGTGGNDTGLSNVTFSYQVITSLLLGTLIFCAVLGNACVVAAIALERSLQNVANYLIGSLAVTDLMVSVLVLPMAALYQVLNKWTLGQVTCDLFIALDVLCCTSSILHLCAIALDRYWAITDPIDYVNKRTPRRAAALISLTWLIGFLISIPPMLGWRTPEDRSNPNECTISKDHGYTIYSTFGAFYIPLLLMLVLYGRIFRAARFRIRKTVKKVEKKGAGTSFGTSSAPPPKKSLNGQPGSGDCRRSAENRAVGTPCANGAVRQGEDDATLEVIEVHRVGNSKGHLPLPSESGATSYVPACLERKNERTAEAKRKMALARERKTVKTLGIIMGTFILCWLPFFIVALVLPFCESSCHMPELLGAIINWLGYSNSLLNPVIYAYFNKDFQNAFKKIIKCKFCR

T1 sequence (P28221 whole entry): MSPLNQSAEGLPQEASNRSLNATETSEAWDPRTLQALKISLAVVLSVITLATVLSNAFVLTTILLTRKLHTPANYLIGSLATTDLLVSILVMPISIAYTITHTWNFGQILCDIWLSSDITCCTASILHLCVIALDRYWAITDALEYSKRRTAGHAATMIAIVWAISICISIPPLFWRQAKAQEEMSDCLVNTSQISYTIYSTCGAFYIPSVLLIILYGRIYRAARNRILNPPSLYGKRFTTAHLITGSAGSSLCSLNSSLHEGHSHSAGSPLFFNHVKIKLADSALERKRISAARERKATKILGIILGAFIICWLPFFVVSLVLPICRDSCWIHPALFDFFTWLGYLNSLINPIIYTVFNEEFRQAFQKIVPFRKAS
T2 sequence (P28222 whole entry): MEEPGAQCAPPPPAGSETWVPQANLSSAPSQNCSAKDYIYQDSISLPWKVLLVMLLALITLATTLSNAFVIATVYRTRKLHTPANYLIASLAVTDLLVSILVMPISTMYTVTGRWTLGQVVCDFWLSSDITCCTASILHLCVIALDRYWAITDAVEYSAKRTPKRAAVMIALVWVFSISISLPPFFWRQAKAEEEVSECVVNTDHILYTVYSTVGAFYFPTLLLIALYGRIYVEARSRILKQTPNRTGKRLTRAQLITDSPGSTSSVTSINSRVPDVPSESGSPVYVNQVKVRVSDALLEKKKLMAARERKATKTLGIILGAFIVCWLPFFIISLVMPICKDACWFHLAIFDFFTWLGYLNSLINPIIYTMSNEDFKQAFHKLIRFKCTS
Sequence of 5-hydroxytryptamine receptor 1E (P28566 whole entry): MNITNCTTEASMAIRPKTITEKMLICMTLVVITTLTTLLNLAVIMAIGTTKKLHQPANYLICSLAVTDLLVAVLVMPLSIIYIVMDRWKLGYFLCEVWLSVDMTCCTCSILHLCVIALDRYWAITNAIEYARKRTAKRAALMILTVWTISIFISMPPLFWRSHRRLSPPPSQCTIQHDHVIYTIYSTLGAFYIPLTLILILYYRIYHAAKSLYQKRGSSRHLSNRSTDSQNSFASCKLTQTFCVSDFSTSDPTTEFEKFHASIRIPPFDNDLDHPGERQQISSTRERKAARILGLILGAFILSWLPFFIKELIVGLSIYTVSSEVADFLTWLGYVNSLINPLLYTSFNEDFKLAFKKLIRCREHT
Sequence of 5-hydroxytryptamine receptor 2A (P28223 whole entry): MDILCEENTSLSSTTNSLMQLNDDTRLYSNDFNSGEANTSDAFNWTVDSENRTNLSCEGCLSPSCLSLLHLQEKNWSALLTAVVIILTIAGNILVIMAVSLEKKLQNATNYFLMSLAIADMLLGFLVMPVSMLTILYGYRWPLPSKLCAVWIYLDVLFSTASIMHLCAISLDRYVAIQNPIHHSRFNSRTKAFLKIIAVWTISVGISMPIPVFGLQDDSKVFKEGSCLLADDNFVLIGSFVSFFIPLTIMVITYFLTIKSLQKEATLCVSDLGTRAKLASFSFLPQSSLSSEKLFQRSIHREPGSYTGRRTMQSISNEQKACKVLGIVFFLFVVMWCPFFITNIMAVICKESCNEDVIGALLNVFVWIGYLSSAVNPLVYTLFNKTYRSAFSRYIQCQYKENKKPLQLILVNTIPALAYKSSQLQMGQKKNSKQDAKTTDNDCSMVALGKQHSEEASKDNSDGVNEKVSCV

Compound | IC50 [1] | IC50 [2] | Efficacy [3] | EC50 [4] | other results
c1ccc(CCN2CCN(CCCc3c[nH]c4ccc(-n5cnnc5)cc34)CC2)cc1 | 1.4 nM | 170 nM | 65% | 0.9 nM | 
CN1CCN(CCc2c[nH]c3ccc(-n4cnnc4)cc23)CC1 | 140 nM | 310 nM | 63% | 80 nM | 
CN1CCN(CCCc2c[nH]c3ccc(-n4cnnc4)cc23)CC1 | 35 nM | 430 nM | 104% | 53 nM | 
c1cc2[nH]cc(CCN3CCCC3)c2cc1-n1cnnc1 |  |  | 120% |  | 
CC(=O)Nc1cccc(CCN2CCN(CCCc3c[nH]c4ccc(-n5cnnc5)cc34)CC2)c1 | 1.8 nM | 170 nM | 96% | 1.6 nM | 
CNS(=O)(=O)Cc1ccc2[nH]cc(CCN(C)C)c2c1 |  |  |  |  | IC50 [10]: 2400 nM; IC50 [13]: 450 nM
CC(=O)Nc1ccc(CCN2CCN(CCCc3c[nH]c4ccc(-n5cnnc5)cc34)CC2)cc1 | 1.3 nM | 251 nM | 85% | 1.9 nM | 

The remaining compounds from weak to strong by IC50 [1], led by results:

IC50 [1] | IC50 [2] | Efficacy [3] | EC50 [4] | Compound | other results
1 nM | 98 nM | 86% | 1.9 nM | Fc1ccc(CCN2CCN(CCCc3c[nH]c4ccc(-n5cnnc5)cc34)CC2)cc1F | 
0.8 nM | 120 nM | 81% | 1.5 nM | Fc1ccc(CCN2CCN(CCCc3c[nH]c4ccc(-n5cnnc5)cc34)CC2)cc1 | 
0.7 nM | 47 nM | 86% | 0.6 nM | Fc1cc(F)cc(CCN2CCN(CCCc3c[nH]c4ccc(-n5cnnc5)cc34)CC2)c1 | 
0.6 nM | 75 nM |  |  | Fc1cccc(CCN2CCN(CCCc3c[nH]c4ccc(-n5cnnc5)cc34)CC2)c1 | IC50 [5]: 9000 nM; IC50 [6]: 370 nM; IC50 [7]: 3800 nM; EC50 [8]: 1.2 nM; IC50 [9]: > 10000 nM; IC50 [10]: > 10000 nM; IC50 [11]: 0.6 nM; IC50 [12]: 75 nM; IC50 [13]: 55 nM
0.6 nM | 100 nM | 80% | 1.5 nM | Fc1ccccc1CCN1CCN(CCCc2c[nH]c3ccc(-n4cnnc4)cc23)CC1 | 
0.2 nM | 8.1 nM | 56% | 0.1 nM | c1ccc(CN2CCN(CCCc3c[nH]c4ccc(-n5cnnc5)cc34)CC2)cc1 | 
